Assays:
mβG-eB7 [1] = biological target: T1, mβG-eB7 (Mus musculus, UniProt P12265, G265D/I320V); experiment: FDGlcU staining of HCC36 cells infected with Ad5/mβG-eB7, flow cytometer; type: cell-based
T1 construct: expressed in transfected cells
T1 sequence (P12265 with tags, fused parts or gaps G265D/I320V): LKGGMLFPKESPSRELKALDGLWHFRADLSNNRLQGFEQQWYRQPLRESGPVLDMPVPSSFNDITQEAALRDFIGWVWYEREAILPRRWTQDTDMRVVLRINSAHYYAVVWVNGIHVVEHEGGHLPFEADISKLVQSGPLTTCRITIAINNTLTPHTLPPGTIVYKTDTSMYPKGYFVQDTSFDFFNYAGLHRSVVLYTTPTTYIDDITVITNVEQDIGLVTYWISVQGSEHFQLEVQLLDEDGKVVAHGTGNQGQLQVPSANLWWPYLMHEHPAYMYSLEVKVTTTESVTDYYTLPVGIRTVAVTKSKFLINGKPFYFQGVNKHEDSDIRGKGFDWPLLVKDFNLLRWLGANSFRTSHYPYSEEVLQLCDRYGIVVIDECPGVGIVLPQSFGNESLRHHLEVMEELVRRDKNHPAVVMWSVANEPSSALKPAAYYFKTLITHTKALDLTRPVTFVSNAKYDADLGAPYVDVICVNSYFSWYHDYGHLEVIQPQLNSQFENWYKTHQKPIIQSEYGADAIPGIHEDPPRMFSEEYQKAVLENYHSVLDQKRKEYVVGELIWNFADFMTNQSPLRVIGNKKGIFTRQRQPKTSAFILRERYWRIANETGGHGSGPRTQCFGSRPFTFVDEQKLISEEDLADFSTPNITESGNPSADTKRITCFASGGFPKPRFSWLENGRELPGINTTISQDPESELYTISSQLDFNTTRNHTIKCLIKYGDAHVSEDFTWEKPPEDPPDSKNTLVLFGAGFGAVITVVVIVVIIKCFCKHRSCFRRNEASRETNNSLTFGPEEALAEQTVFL
Text: HCC36 cells (open curve) and HCC36 cells infected with Ad5/mβG-eB7 (solid curve) were stained for the presence of the […] epitope in mβG-eB7 (left panel) or directly stained with FDGlcU (right panel) and then analyzed on a flow cytometer.
As shown by staining of membrane β-glucuronidase with anti-myc antibody in the left panel of FIG. 10, HCC36 cells were successfully infected with Ad5/mβG-eB7.

mβG-eB7 [2] = biological target: T1, mβG-eB7; experiment: FDGlcU hydrolysis on live CT26 and CT26/mβG-eB7 cells, confocal microscopy; type: cell-based; settings: 40 μM FDGlcU, pH 6.5, 37° C., 40 minutes
Experimental: For example, functional expression of membrane bound β-glucuronidase on a host cell can be measured by incubating the host cells (with and without the recombinant reporter gene systems, such as CT26 or CT26/mβG-eB7 cells) with 40 μM FDGlcU (Invitrogen, Calsbad, Calif.) in phosphate-buffered saline containing 0.1% BSA, pH 6.5 at 37° C. for 40 minutes and then staining the cells with anti-myc antibody (5 μg/ml, clone Myc 1-9EIO.2, American Type Culture Collection, Manassas, Va.) at about 4° C. for about 1 hour. The cells can be washed with cold phosphate-buffered saline and incubated with rhodamine-conjugated rabbit anti-mouse IgG antibody (5 μg/ml) at about 4° C. for about 1 hour. The cells are then washed with cold phosphate-buffered saline, mounted with fluorescence mounting medium (anti fade; DakoCytomation, Carpinteria, Calif.), and viewed under a digital fluorescence confocal microscope.

mβG-eB7 [3] = biological target: T1, mβG-eB7; experiment: Biodistribution by optical imaging of whole-body frozen sections after i.v. FDGlcU or fluorescein; type: in vivo; settings: 30 minutes after i.v. injection of 500 μg
Experimental: In vivo biodistribution of fluorescein was measured around 30 minutes after i.v. injection of the substrate, FDGlcU, (left panel) or fluorescein (right panel). The biodistribution of activated FDGlcU was examined by killing tumor-bearing mice 30 minutes after they received an injection of FDGlcU or fluorescein and then performing optical imaging of whole-body frozen sections. The intensity of the fluorescence of whole-body sections was measured with the IVIS® Imaging System 50 (Xenogen, Alameda, Calif.).
For example, mice (n=3) were i.v. injected with 500 μg FDGlcU or fluorescein 30 min before the mice were dipped into isopentane at liquid nitrogen temperatures and embedded on a cryostat holder (7×5 cm) in 4% carboxylmethylcellulose. The fluorescence signals of 30 μm whole-body sections were measured on a IVIS® Imaging System 50 (Xenogen, Alameda, Calif.) and the regions of interest were analyzed with Living Image® software (Xenogen).
FIG. 9 is a graph showing a comparison of the results of the example of FIG. 8 in different organ regions of interest according to one embodiment of the invention. After i.v. injection of FDGlcU or fluorescein, mice were analyzed with Living Image® software. […] The fluorescent intensity in CT26/mβG-eB7 tumors was about 240 times greater than in the CT26 tumors (FIG. 9). Fluorescent signals were also observed in the intestinal tract.

mβG-eB7 [4] = biological target: T1, mβG-eB7; experiment: In vivo whole-body optical imaging of FDGlcU activation in mice bearing CT26 and CT26/mβG-eB7 tumors; settings: Balb/c mice, 500 μg i.v.
Experimental: To investigate whether expression sites of membrane bound β-glucuronidase reporter system could be non-invasively detected (in vivo imaging), Balb/c mice bearing established CT26 and CT26/mβG-eB7 colon tumors in their left and right chest regions, respectively, were intravenously injected with about 500 μg of non-fluorescent FDGlcU. Whole-body images of the mice were acquired by performing 3 minute scans.
As an example, Balb/c mice (n=3) bearing established CT26 and CT26/mβG tumors (200-300 mm^3) in their left and right chest regions, respectively, were i.v. injected with 500 μg FDGlcU. Whole-body images of pentobarbital-anesthetized mice were obtained by performing 3 minutes scans over 90 minutes on a Kodak IS2000MM optical imaging system. The fluorescence intensities were analyzed with KODAK 1D Image Analysis Software.
The distribution of activated FDGlcU in CT26 (open circle) and CT26/mβG-eB7 (black dot) tumors (n=4) was determined by measuring fluorescence intensities in 3 minute scans performed over 90 minutes.

mβG-eB7 [5] = biological target: T1, mβG-eB7; experiment: In vivo imaging of FDGlcU in nude mice with HCC36 tumors injected with Ad5/mβG-eB7; settings: 10^9 pfu intratumoral, FDGlcU i.v. two days later
Experimental: To image Ad5/mβG-eB7, nude mice (n=3) bearing established HCC36 tumors (200-300 mm^3) in their left and right chest's regions were injected in the right HCC36 tumor with 10^9 pfu of Ad5/mβG-eB7 in 50 μl of phosphate-buffered saline (PBS). Two days later, the mice were i.v. injected with 500 μg of FDGlcU. Whole-body images were obtained in 3 min scans over 2 hour.
After the tumors grew, 10^9 pfu of Ad5/mβG-eB7 was directly injected into the HCC36 tumor on the right side of the mouse. Two days later, the mouse was i.v. injected with FDGlcU and whole-body optical imaging was performed.
Tumor cells were collected 30 minutes after FDGlcU injection were stained with X-GlcA and nuclear fast red and then viewed under phase contrast and fluorescence microscopes.

hβG-eB7 = biological target: T2, hβG-eB7 (UniProt P08236+Q00609, L649P); experiment: In vivo imaging of FDGlcU in nude mice bearing EJ and EJ/hβG-eB7 tumors; set-up: species or system human; settings: 500 μg i.v.
T2 construct: expressed in transfected cells; host or cells: EJ human bladder carcinoma cells, retroviral transduction with pLNCX-hβG-eB7; tumours in nude mice
T2 sequence (P08236+Q00609 with tags, fused parts or gaps P08236:L649P): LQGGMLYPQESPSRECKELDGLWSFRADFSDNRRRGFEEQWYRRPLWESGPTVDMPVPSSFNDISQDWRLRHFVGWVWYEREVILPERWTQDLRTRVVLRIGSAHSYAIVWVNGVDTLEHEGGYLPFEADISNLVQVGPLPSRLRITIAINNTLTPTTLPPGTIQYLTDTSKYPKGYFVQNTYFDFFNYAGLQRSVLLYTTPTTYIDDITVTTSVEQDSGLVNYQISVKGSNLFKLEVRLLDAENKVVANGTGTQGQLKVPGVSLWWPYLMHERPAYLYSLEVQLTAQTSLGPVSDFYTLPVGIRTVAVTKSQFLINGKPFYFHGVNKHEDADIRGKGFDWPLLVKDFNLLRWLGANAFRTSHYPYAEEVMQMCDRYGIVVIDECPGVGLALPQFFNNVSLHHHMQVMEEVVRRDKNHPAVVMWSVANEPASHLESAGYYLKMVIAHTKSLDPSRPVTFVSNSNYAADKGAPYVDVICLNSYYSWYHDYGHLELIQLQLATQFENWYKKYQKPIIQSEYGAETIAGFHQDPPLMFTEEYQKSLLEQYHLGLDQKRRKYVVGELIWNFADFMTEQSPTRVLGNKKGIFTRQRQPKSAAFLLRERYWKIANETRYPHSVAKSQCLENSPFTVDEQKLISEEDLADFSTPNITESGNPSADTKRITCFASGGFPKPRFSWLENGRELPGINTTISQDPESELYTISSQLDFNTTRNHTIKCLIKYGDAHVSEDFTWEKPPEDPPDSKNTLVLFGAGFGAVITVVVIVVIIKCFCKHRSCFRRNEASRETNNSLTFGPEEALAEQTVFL
Experimental: Retroviral vector pLNCX-hβG-eB7 was constructed and infected to EJ human bladder carcinoma cells (EJ/hβG-eB7) to express functionally active human β-glucuronidase on the membrane. hβG-eB7 was imaged in nude mice (n=3) bearing established EJ and EJ/hβG-eB7 tumors (200-300 mm^3) in their left and right chest regions, respectively, by i.v. injecting 500 μg FDGlcU and performing imaging and histological analysis of fluorescent intensity and βG activity as described above.
FDGlcU was i.v. injected into mice bearing EJ (left) and EJ/hβG-eB7 (right) tumors and whole-body images were acquired at the indicated times (3 mins, 30 mins, 60 mins). […] Live EJ cells (open curve) and EJ/hβG-eB7 cells (solid curve) were immunofluorescence stained for the myc epitope (left panel) or incubated with FDGlcU (right panel), respectively, and analyzed on a flow cytometer.

[6] = biological target: Recombinant E. coli β-glucuronidase (Escherichia coli, UniProt P05804); experiment: Trapping of FITC-trap-glu on coated β-glucuronidase detected by anti-FITC antibody ELISA; type: biochemical; settings: β-glucuronidase and BSA about 2 μg/well, serial dilutions, about 60 mins
Experimental: Recombinant E. coli β-glucuronidase (about 2 μg/well) and bovine serum albumin (about 2 μg/well) were coated in 96 well microtiter plates and blocked with about 2% of skin milk. Serial dilutions of the FITC-trap-glu probe in phosphate-buffered saline were added to the wells of the microtiter plates at room temperature for about 60 mins. The plates were washed 3 times with phosphate-buffered saline. The plates were stained with about 1 μg/mL of an anti-FITC antibody followed by about 1 μg/mL of horse-radish peroxidase-conjugated anti-mouse IgG. The plates were washed and bound peroxidase activity was measured by adding about 100 μL/well of ABTS solution (about 0.4 mg/mL of 2,2′ azino-di(3-ethylbenzthiazoline-6-sulfonic acid), about 0.003% of H2O2, about 100 mM of phosphate-citrate, pH 4.0) for about 30 min at room temperature.

mβG-eB7 [7] = biological target: T1, mβG-eB7; experiment: ^124I-trap-glu conversion by CT26/mβG-eB7 or CT26 cells, bound radioactivity in gamma-counter; type: cell-based; settings: graded concentrations, room temperature, about 40 mins
Experimental: Graded concentrations of the ^124I-trap-glu probe/substrate were incubated with CT26/mβG-eB7 (▪) or CT26 cells (□) in phosphate-buffer saline at room temperature for about 40 mins. The plates containing the transfected cells were washed and bound radioactivity was measured in a gamma-counter.

mβG-eB7 [8] = biological target: T1, mβG-eB7; experiment: ^124I-ph-trap-glu conversion by CT26/mβG-eB7 or CT26 cells, cell radioactivity in gamma-counter; type: cell-based; settings: graded concentrations, room temperature, about 40 mins
Experimental: Graded concentrations of the ^124I-trap-glu probe was added to 96-well microtiter plates coated with CT26/mβG-eB7 (▪) or CT26 cells (□) in phosphate-buffered saline at room temperature for about 40 mins. The plates were then washed to remove non-precipitated probes and the cells were collected by treatment with trypsin. The radioactivity of cells was then measured in a gamma-counter.

Chain of Recombinant E. coli β-glucuronidase (P05804 whole entry): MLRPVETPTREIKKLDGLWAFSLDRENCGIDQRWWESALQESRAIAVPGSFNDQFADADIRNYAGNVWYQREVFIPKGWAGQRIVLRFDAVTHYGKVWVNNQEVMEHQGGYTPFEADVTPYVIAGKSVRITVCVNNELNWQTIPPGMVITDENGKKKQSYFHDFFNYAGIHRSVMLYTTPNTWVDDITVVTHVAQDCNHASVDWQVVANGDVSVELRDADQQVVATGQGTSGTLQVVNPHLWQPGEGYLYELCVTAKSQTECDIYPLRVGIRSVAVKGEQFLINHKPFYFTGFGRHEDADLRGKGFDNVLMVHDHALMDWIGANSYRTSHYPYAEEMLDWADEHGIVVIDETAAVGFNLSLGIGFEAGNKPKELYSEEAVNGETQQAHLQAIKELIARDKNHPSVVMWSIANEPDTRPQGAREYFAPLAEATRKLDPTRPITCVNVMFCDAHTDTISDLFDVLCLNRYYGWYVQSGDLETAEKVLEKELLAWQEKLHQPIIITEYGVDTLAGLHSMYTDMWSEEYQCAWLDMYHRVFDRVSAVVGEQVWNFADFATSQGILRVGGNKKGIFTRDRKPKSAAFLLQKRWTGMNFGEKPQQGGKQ

Compound: O=C1OC2(c3ccc(O[C@@H]4O[C@H](C(=O)O)[C@@H](O)[C@H](O)[C@H]4O)cc3Oc3cc(O[C@@H]4O[C@H](C(=O)O)[C@@H](O)[C@H](O)[C@H]4O)ccc32)c2ccccc21 [FDGlcU, fluorescein di-β-D-glucuronide]
- activation of FDGlcU at Ad5/mβG-eB7 infected HCC36 cells (mβG-eB7 [1]): activated to fluorescent product at the infected cells
- conversion of FDGlcU to fluorescein on cells (mβG-eB7 [2]): only CT26/mβG-e-B7 cells
- fluorescent intensity in CT26/mβG-eB7 tumors relative to CT26 tumors (mβG-eB7 [3]; whole-body sections): about 240 times
- time of highest fluorescence after FDGlcU injection (mβG-eB7 [4]; 3 minute scans over 90 minutes): 30 min
- conversion of FDGlcU to fluorescein in CT26/mβG tumors vs control CT26 tumors (mβG-eB7 [4]; whole-body images at 3, 30, 60 mins): selectively converted to fluorescein
- fluorescence of Ad5/mβG-eB7 injected HCC36 tumor vs non-infected HCC36 tumors (mβG-eB7 [5]): obvious fluorescence
- conversion to fluorescent reporter in EJ/hβG-eB7 vs control EJ tumors (hβG-eB7): preferentially converted to a fluorescent reporter in EJ/hβG-eB7 tumors but not in control tumors

Compound: O=C1OC2(c3ccc(O)cc3Oc3cc(O)ccc32)c2ccccc21 [fluorescein]
- in vivo biodistribution (mβG-eB7 [3]; tumor-bearing mice): largely accumulated in the intestinal tract and kidneys

Compound: N-fluorescein-isothiocyanato (3-difluoromethylphenyl)-β-D-glucopyronuronate [FITC-trap-glu]
- trapping by β-glucuronidase detected by anti-FITC antibody [6]: specific trapping

Compound: ^124I-difluoromethylphenol glucuronide [^124I-trap-glu]
- conversion of probe to ^124I-trap product in CT26/mβG-eB7 vs CT26 cells (mβG-eB7 [7]): specifically converts

Compound: ^124I-phenolphthalin glucuronide [^124I-ph-trap-glu]
- conversion of probe to ^124I-trap reporter product in CT26/mβG-eB7 vs CT26 cells (mβG-eB7 [8]): specifically converts

— US20080176225A1, “MEMBRANE BOUND REPORTER GENE SYSTEM” (priority 2007, published 2008)
